Results on one compound are retold here after paper PMC9785397, “Exploiting Conserved Quorum Sensing Signals in Streptococcus mutans and Streptococcus pneumoniae” (Microorganisms, 2022).

Type in all cases: cell-based, Streptococcus mutans
In test [1] the test system is S. mutans bacteriocin production against S. mitis. In words: Bacteriocin overlay assay, S. mutans spotted on S. mitis. To be noted: CSP1 20 μM alone vs vehicle, 16 h, 37 °C, microaerophilic. The procedure:
During the formation of complex biofilm such as dental plaque, the ability of S. mutans to compete with other commensal species determines the success of the cariogenesis process. S. mutans uses antibacterial peptides, namely, bacteriocins, to overcome and subvert the composition of dental microbiota. We investigated the production of bacteriocins using the overlay assay. Overnight cultures of S. mitis, S. oralis, S. sanguinis, P. aeruginosa, F. nucleatum, or P. gingivalis were diluted 1:100 in BHI or TS broth and incubated at 37 °C until they reached an OD620 of 0.3. Cultures were added with agar (BD Difco^TM Agar) at the final concentration of 1.5% w/v and transferred in plates. Overnight cultures of S. mutans were diluted 1:100 in BHI and added with peptides (20 μM) or the vehicle with or without CSP1. Culture media were supplemented with agar to reach the final concentration of 0.7% w/v. The solutions were spotted on the surface of agar plates prepared as described above. The plates were kept on the benchtop for 30 min, allowing the agar containing S. mutans to solidify, and then incubated at 37 °C for 16 h under microaerophilic or anaerobic conditions, as required.
Spots (10 for each experimental group) were acquired and analyzed using NIH Image J software (version 1.53t August 2022, https://imagej.nih.gov/ij/index.html; accessed on 7 September 2022). The appearance of a clear area on the plate (bacterial growth inhibition) was evaluated as indicative of bacteriocin activity. The diameters of the area were measured in a blinded fashion.

In test [2] the test system is S. mutans biofilm formation. In words: Biofilm formation (crystal violet). To be noted: peptide 20 μM, 72 h, p < 0.05. The procedure: Overnight cultures of S. mutans were diluted 1:1000 in a 1:10 solution of BHI broth supplemented with 0.2% w/v sucrose and artificial saliva (AS; 1.3 g/L KCl, 0.1 g/L NaCl, 0.05 g/L MgCl, 0.1 g/L CaCl2, 0.5 g/L peptone, 25 μg/L NaF, 27 mg/L KH2PO4, 35 mg/L K2HPO4, pH 6.8; all reagents purchased from Merck). Cultures were seeded into 96-well polystyrene microtiter plates (200 µL/well) and incubated at 37 °C under static conditions. To identify the time of incubation that is useful in obtaining a mature biofilm, plates were incubated for 16, 24, 48, 72, or 96 h. Half of the media was renewed every 24 h. At the end of incubations, the wells were emptied and washed three times with sterile PBS to remove planktonic cells. Adhering cells were incubated with resazurin 0.01% in the dark at 37 °C for 20 min [30]. In metabolically active cells, the non-fluorescent resazurin was reduced to highly fluorescent resorufin by dehydrogenase enzymes. The relative fluorescence units (RFU) of resorufin were measured using a fluorimeter (Ex = 530–570 nm, Em = 590–620 nm; Varioskan Lux Reader; Thermo Fisher Scientific).
To assess the effect of the compounds on biofilm formation or mature biofilm, cultures of S. mutans were prepared as described above. […] The optical density was measured at 570 nm using a microplate reader (Varioskan Lux Reader; Thermo Fisher Scientific). […]

Test [3] has as its system S. mutans. The test is described as follows: microbe, parasite or virus in culture. As to conditions: peptides 0–50 μM, 16 h, 37 °C, microaerophilic, A620 nm, three separate experiments. From the text:
Streptococcus mutans Clarke (strain designation NCTC 10449), Pseudomonas aeruginosa (Schroeter) Migula (strain designation PAO1), Fusobacterium nucleatum, subspecies nucleatum (strain VPI 4355), and Porphyromonas gingivalis (strain 2561) were purchased from ATCC (LGC Standards Srl, Milan, Italy). Streptococcus mitis, Streptococcus oralis, and Streptococcus sanguinis were obtained from clinical isolates and characterized by morphological, biochemical, and molecular typing. S. mutans, S. mitis, S. oralis, and S. sanguinis were maintained in Brain Heart Infusion (BHI) broth or agar under microaerophilic conditions. P. aeruginosa was maintained in trypticase soy (TS) agar or broth. F. nucleatum was maintained in TS agar or broth with defibrinated sheep blood under anaerobic conditions. P. gingivalis was maintained in ATCC Medium 2722 supplemented with TS broth or agar under anaerobic conditions. Before the experiments, bacterial cultures were inoculated in fresh media (dilution 1:100) and grown for 16 h at 37 °C.
The antimicrobial activities of the tested peptides were assessed through the determination of the minimum inhibitory concentration (MIC) standardized by the Clinical and Laboratory Standards Institute. Bacterial inocula were diluted in 10 mL of MHB […]. The concentration of the bacteria was adjusted to 0.5 McFarland standard, and the bacteria were dispensed in 96-well microtiter plates (final bacterial concentration: 1 × 10^4 CFU/well). Peptides were dissolved in sterile water (stock concentration: 2 mM) and added at final concentrations ranging from 0 to 50 µM. Plates were incubated at 37 °C for 16 h. At the end of incubation, bacterial growth was recorded using a microplate reader (Varioskan Lux Reader; Thermo Fisher Scientific, Milan, Italy) by quantifying the adsorption at 620 nm. Cultures were then opportunely diluted and seeded on agar plates. Bacterial cultures inoculated with the highest final concentration of the vehicle (sterile water) or chlorhexidine hydrochloride salt (CHX, concentration range: 0.05 to 500 μg/mL; Merck, Milan, Italy) were included as controls in each test. Experiments were performed in triplicate.

The test system of test [4] is S. mutans. The test is described as follows: Bacterial growth kinetics. As for the experimental part:
Peptides were further evaluated for their potential effect in altering the growth kinetics in S. mutans. Overnight bacterial cultures were collected, centrifuged, and suspended in fresh BHI broth at 10^8 CFU/mL. Bacteria were dispensed in sterile 96-well microtiter plates at a final concentration of 1 × 10^6 CFU/100 µL and cultured with peptides or the vehicle at 37 °C for 36 h. Bacterial growth kinetics were monitored by measuring the optical density at 620 nm at different time points using Varioskan Lux Reader (Thermo Fisher Scientific).

The structures appear in SMILES notation. In brackets after ≈: the same amount, converted by molar mass.

As to `CC[C@H](C)[C@H](NC(=O)[C@H](Cc1ccccc1)NC(=O)[C@H](CC(=O)O)NC(=O)[C@H](CCCNC(=N)N)NC(=O)[C@H](Cc1ccccc1)NC(=O)[C@H](Cc1ccccc1)NC(=O)[C@H](CCCCN)NC(=O)[C@H](CO)NC(=O)[C@H](CC(C)C)NC(=O)[C@H](CCCNC(=N)N)NC(=O)[C@H](CCSC)NC(=O)[C@@H](N)CCC(=O)O)C(=O)N[C@@H](CC(C)C)C(=O)N[C@@H](CCC(N)=O)C(=O)N[C@@H](CCCNC(=N)N)C(=O)N[C@@H](CCCCN)C(=O)N[C@@H](CCCCN)C(=O)O` [CSP1], the “Growth inhibition of co-cultured S. mitis by S. mutans stimulated with peptide (diameter of clear area)” value in test [1] was “significantly inhibited the growth”. For the same compound, in test [2], the “Effect on biofilm production vs. vehicle” value is given as “significantly increased”. Besides, the “Minimum inhibitory concentration (MIC), S. mutans” value in test [3] turned out to be 30 µM (≈ 67.3 µg/mL). In test [4] (20 µM peptide, BHI broth, 37 °C, monitored 36 h, A620 nm, three experiments), the “Effect on the growth (growth kinetics) of S. mutans” value is “no significant effects”. Besides, the “Colony counting of S. mutans after incubation with the peptide” value in test [4] (20 µM, data not shown) is reported as “not affected”.
